From patent publication US20250325573A1, “Anti-Cancer Saccharide-Linked Dithiocarbamate Compounds” (Anglia Ruskin University Higher Education Corporation, priority 2022, published 2025)

Legend:
Format in all cases: cell-based
[1] = test system: H630 WT; assay: MTT cytotoxicity assay, colorectal cancer cell line H630 WT; settings: 72 h
Experimental: (§1) The H630 WT (passage 12-21) and H630 R10 (passage 4-13) cells were seeded in 96-well plates at seeding density of 1×10^4 cells/well in Dulbecco's modified Eagle's medium (DMEM) with 10% FBS, 1 mM sodium pyruvate, 2 mM L-glutamine and 0.1 mM non-essential amino acids. Cells were incubated at 37° C., 5% CO2 and 95% relative humidity. Cells were constantly exposed to different concentrations of the tested compound in combination with 10 μM of CuCl2 for 72 h and then subjected to a standard 3-(4,5-Dimethylthiazol-2-yl)-2,5-Diphenyltetrazolium bromide (MTT) assay. The experiments were carried out in triplicates and the IC50 values were calculated (see FIG. 2).

[2] = test system: H630 R10; assay: MTT cytotoxicity assay, colorectal cancer cell line H630 R10 (resistant to 5FU 10 μM); settings: 72 h
Experimental: as §1
5FU was purchased from Sigma Aldrich, Dorset, UK.

[3] = test system: MDA-MB-231; assay: MTT cytotoxicity assay, breast cancer cell line MDA-MB-231
[4] = test system: breast cancer cell line MDA-MB-231; assay: Microscopy images of breast cancer cells MDA-MB-231; settings: for concentration showing apoptotic signs (shrinkage, cell detachment, membrane blebbing): 24 hours of incubation
[5] = test system: lung cancer cell line A549; assay: Microscopy images of lung cancer cells A549; settings: for cytotoxicity against lung cancer cells (microscopy): with and without copper(II) 10 μM, boosted by adding copper
[6] = test system: A549; assay: MTT cytotoxicity assay, lung cancer cell line A549
[7] = test system: colorectal cancer cell line H630 WT; assay: Microscopy images of colorectal cancer cells H630 WT; settings: 500 μM, copper(II) 10 μM, 72 hours
[8] = Homo sapiens, NCI-H630, comparative agent as listed, no added metal named
[9] = Homo sapiens, MDA-MB-231, 72 h, without copper(II)
[10] = comparative agent as listed, no added metal named
[11] = Homo sapiens, NCI-H630, with Cu (10 μM CuCl2)
[12] = Homo sapiens, A549, 72 h, with Cu (10 μM CuCl2)
[13] = Homo sapiens, MDA-MB-231, 72 h, with Cu (10 μM CuCl2)

Structure (SMILES): O=c1[nH]cc(F)c(=O)[nH]1 [Example 5FU, fluorouracil, reference compound]
- IC50 [1, 8]: 4.6 ± 1.6 µM
- IC50 [2, 8]: 462 ± 8 µM

Structure (SMILES): CCN(CC)C(=S)SSC(=S)N(CC)CC [DS, disulfiram, reference compound]
- IC50 [3, 9]: > 8000 µM

Structure (SMILES): CCN(CC)C(=S)SC1O[C@H](CO)[C@@H](O)[C@H](O)[C@H]1O (stereo in doubt) [Ga-DDC, Galactosyl diethyldithiocarbamate]
- IC50 ([3]; with Cu (10 μM CuCl2), 72 h): 17.7 ± 8.2 µM

Structure (SMILES): O=CC[C@@H](O)[C@H](O)[C@H](O)CO [2-deoxy-glucose, reference compound]
- features of apoptosis ([4]; 1000 μM, with copper(II) 10 μM, 24 hours): no features of apoptosis
- concentration showing slight toxicity effect (cells started to detach) ([4]; without copper(II), 24 hours): 8 mM
- cytotoxic effect (microscopy) ([5]; 1 mM, with or without copper(II), 72 h): no cytotoxic effect
- concentration showing slight toxicity effect (cells started to detach) ([5]; without copper(II), 24 hours): 8 mM

Structure (SMILES): CCN(CC)C(=S)[S-].CCN(CC)C(=S)[S-].[Cu+2] [(DDC)2Cu, Cu(II) bis(N,N-diethyldithiocarbamate) complex, reference compound]
- IC50 ([6]; comparative agent as listed, no added metal named, 72 h): 3.6 ± 0.7 µM
- IC50 [1, 10]: 5.9 ± 1.1 µM
- IC50 [2, 10]: 4.9 ± 1.6 µM

Structure (SMILES): CCN(CC)C(=S)SC1OC[C@@H](O)[C@H](O)[C@H]1O (stereo partly shown) [XY-DDC, Xylosyl diethyldithiocarbamate]
- IC50 [1, 11]: 6.9 ± 2.6 µM

Structure (SMILES): CCN(CC)C(=S)SC1CC(O)C(O)C(CO)O1 (stereo not shown) [DG-DDC, 2-Deoxy-glycosyl diethyldithiocarbamate]
- IC50 [6, 12]: 2.79 ± 0.25 µM
- IC50 ([6]; Homo sapiens, A549, 72 h, with Zn (ZnCl2 10 μM)): 49.6 ± 18.6 µM
- IC50 [3, 13]: 3.62 ± 0.22 µM
- IC50 [3, 9]: 2060 ± 54.7 µM
- IC50 [1, 11]: 5.2 ± 1.7 µM
- IC50 [2, 11]: 5.3 ± 0.9 µM
- concentration showing apoptotic signs (shrinkage, cell detachment, membrane blebbing) ([4]; with copper(II) 10 μM): 25 µM
- toxic effect compared to glycosyl diethyldithiocarbamate at similar concentrations ([4]; without copper(II), 24 hours): more toxic effect
- observation in cells (microscopy) [7]: Cu(II) bis(N,N-diethyldithiocarbamate) complex crystals
- cytotoxicity against lung cancer cells (microscopy) ([5]; 72 h): cytotoxic
- toxic effect compared to glycosyl diethyldithiocarbamate at similar concentrations ([5]; without copper(II), 24 hours): more toxic effect

Structure (SMILES): CCN(CC)C(=S)SC1O[C@H](CO)[C@@H](O[C@@H]2O[C@H](CO)[C@H](O)[C@H](O)[C@H]2O)[C@H](O)[C@H]1O (stereo partly shown) [La-DDC, Lactosyl diethyldithiocarbamate]
- IC50 [3, 13]: 89.7 ± 12.6 µM

Structure (SMILES): CCN(CC)C(=S)SC1OC(CO)C(O)C(O)C1NC(C)=O (stereo not shown) [AG-DDC, 2-N-acetyl-glycosylamine diethyldithiocarbamate]
- IC50 [1, 11]: 5.8 ± 1.2 µM

Structure (SMILES): CCN(CC)C(=S)SC1O[C@H](COC(C)=O)[C@@H](OC(C)=O)[C@H](OC(C)=O)[C@H]1OC(C)=O (stereo partly drawn) [Tetra-DDC, β-D-glucopyranose, 1-thio-, 2,3,4,6-tetraacetate 1-(N,N-diethylcarbamodithioate)]
- IC50 [6, 12]: 53.4 ± 11.5 µM

Structure (SMILES): CCN(CC)C(=S)SC1O[C@H](CO)[C@@H](O)[C@H](O)[C@H]1O (stereo partly shown) [G-DDC, Glycosyl diethyldithiocarbamate]
- IC50 [6, 12]: 95.9 ± 21.3 µM
- IC50 [3, 9]: 2180 ± 356 µM
- IC50 ([3]; with Cu (10 μM CuCl2), 72 h): 348 ± 44.7 µM
- IC50 [1, 11]: 127 ± 13.2 µM
- concentration showing apoptotic signs (shrinkage, cell detachment, membrane blebbing) ([4]; with copper(II) 10 μM): 250 µM
- concentration showing signs of apoptosis (shrinkage, cell detachment) ([4]; without copper(II), 24 hours): 8 mM
- concentration showing slight toxicity effect (cells started to detach) ([4]; without copper(II), 24 hours): 4 mM
- cytotoxicity against lung cancer cells (microscopy) ([5]; 72 h): cytotoxic
- concentration showing signs of apoptosis (shrinkage, cell detachment) ([5]; without copper(II), 24 hours): 8 mM
- concentration showing slight toxicity effect (cells started to detach) ([5]; without copper(II), 24 hours): 4 mM

Structure (SMILES): CCN(CC)C(=S)SC1O[C@H](CO)[C@@H](O)[C@H](O)[C@@H]1O (stereo partly shown) [Ma-DDC, Mannosyl diethyldithiocarbamate]
- IC50 [3, 13]: 78.6 ± 12.6 µM
